Assay results published in PubChem BioAssay (NCI).
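All cell lines were grown in 96-well plates and treated with compound for 48 hours. GI50 is the concentration that inhibits growth by half. TGI: total growth inhibition.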

Assays:
Experiment in all cases: inhibition of tumour cell growth, NCI panel, 48 h
HCT-15 colon = tested on: HCT-15 colon
OVCAR-8 ovarian = tested on: OVCAR-8 ovarian
HS 578T breast = tested on: HS 578T breast
UO-31 renal = tested on: UO-31 renal
HL-60(TB) leukemia = tested on: HL-60(TB) leukemia
OVCAR-3 ovarian = tested on: OVCAR-3 ovarian
MCF7 breast = tested on: MCF7 breast
SF-268 CNS = tested on: SF-268 CNS
HOP-62 NSCLC = tested on: HOP-62 NSCLC
PC-3 prostate = tested on: PC-3 prostate

## COc1cc(/C=C/C(=O)c2cccc(-n3cc(-c4ccccc4)[nH]c3=O)c2)cc(OC)c1OC
HCT-15 colon
  GI50: 1.13 µM
  TGI: 5.7 µM
OVCAR-8 ovarian
  GI50: 1.62 µM
  TGI: 16.4 µM
HS 578T breast
  GI50: 3.41 µM
  TGI: 27.1 µM
UO-31 renal
  GI50: 1.51 µM
  TGI: 4.56 µM
HL-60(TB) leukemia
  GI50: 2.9 µM
  TGI: > 100 µM
OVCAR-3 ovarian
  GI50: 1.23 µM
  TGI: 3.14 µM
MCF7 breast
  GI50: 0.31 µM
  TGI: 1.12 µM
SF-268 CNS
  GI50: 1.92 µM
  TGI: 5.74 µM
HOP-62 NSCLC
  GI50: 4.12 µM
  TGI: 13.6 µM
PC-3 prostate
  GI50: 3.26 µM
  TGI: 20.7 µM

## O=c1[nH]c2ccccc2n1C1CCNCC1
HCT-15 colon
  GI50: > 100 µM
  TGI: > 100 µM
OVCAR-8 ovarian
  GI50: > 100 µM
  TGI: > 100 µM
HS 578T breast
  GI50: > 100 µM
  TGI: > 100 µM
UO-31 renal
  GI50: > 100 µM
  TGI: > 100 µM
HL-60(TB) leukemia
  GI50: > 100 µM
  TGI: > 100 µM
OVCAR-3 ovarian
  GI50: > 100 µM
  TGI: > 100 µM
MCF7 breast
  GI50: > 100 µM
  TGI: > 100 µM
SF-268 CNS
  GI50: > 100 µM
  TGI: > 100 µM
HOP-62 NSCLC
  GI50: > 100 µM
  TGI: > 100 µM
PC-3 prostate
  GI50: > 100 µM
  TGI: > 100 µM

## O=[N+]([O-])c1ccc(C2=NCCO2)cc1
HCT-15 colon
  GI50: > 100 µM
  TGI: > 100 µM
OVCAR-8 ovarian
  GI50: > 100 µM
  TGI: > 100 µM
HS 578T breast
  GI50: > 100 µM
  TGI: > 100 µM
UO-31 renal
  GI50: > 100 µM
  TGI: > 100 µM
HL-60(TB) leukemia
  GI50: > 100 µM
  TGI: > 100 µM
OVCAR-3 ovarian
  GI50: > 100 µM
  TGI: > 100 µM
MCF7 breast
  GI50: > 100 µM
  TGI: > 100 µM
SF-268 CNS
  GI50: > 100 µM
  TGI: > 100 µM
HOP-62 NSCLC
  GI50: > 100 µM
  TGI: > 100 µM
PC-3 prostate
  GI50: > 100 µM
  TGI: > 100 µM

## CNC(=O)Oc1cc(C(C)C)ccc1Sc1ccc(C(C)C)cc1OC(=O)NC
HCT-15 colon
  GI50: 1.95 µM
  TGI: 16.1 µM
OVCAR-8 ovarian
  GI50: 5.42 µM
  TGI: 27.9 µM
HS 578T breast
  GI50: 4.7 µM
  TGI: 35.6 µM
UO-31 renal
  GI50: 3.28 µM
  TGI: 16.6 µM
HL-60(TB) leukemia
  GI50: 3.06 µM
  TGI: 12.7 µM
OVCAR-3 ovarian
  GI50: 4.39 µM
  TGI: 14.7 µM
MCF7 breast
  GI50: 5.49 µM
  TGI: 18.2 µM
SF-268 CNS
  GI50: 5.36 µM
  TGI: 19.4 µM
HOP-62 NSCLC
  GI50: 9.56 µM
  TGI: 22.6 µM
PC-3 prostate
  GI50: 2.97 µM
  TGI: 16.9 µM

## COC(=O)[C@@H](C)C[C@H](Cc1ccccc1)NC(=O)c1nc([C@@H](C[C@H](C(C)C)N(C)C(=O)[C@@H](NC(=O)[C@H]2C[C@H](O)CCN2C)C(C)C)OC(C)=O)sc1C(C)C
HCT-15 colon
  GI50: 0.284 µM
  TGI: > 11.1 µM
OVCAR-8 ovarian
  GI50: 0.0193 µM
  TGI: > 11.1 µM
HS 578T breast
  GI50: 0.0122 µM
  TGI: > 8.26 µM
UO-31 renal
  GI50: 0.504 µM
  TGI: > 11.1 µM
HL-60(TB) leukemia
  GI50: 0.00143 µM
  TGI: 0.0074 µM
OVCAR-3 ovarian
  GI50: 0.00148 µM
MCF7 breast
  GI50: < 0.00111 µM
  TGI: > 11.1 µM
SF-268 CNS
  GI50: 0.00957 µM
  TGI: > 11.1 µM
HOP-62 NSCLC
  GI50: 0.0315 µM
  TGI: > 11.1 µM
PC-3 prostate
  GI50: 0.00391 µM
  TGI: > 11.1 µM

## Cn1cc(C2=C(c3ccsc3)C(=O)NC2=O)c2ccccc21
HCT-15 colon
  GI50: > 22.7 µM
  TGI: > 25 µM
OVCAR-8 ovarian
  GI50: > 25 µM
  TGI: > 25 µM
HS 578T breast
  GI50: > 25 µM
  TGI: > 25 µM
UO-31 renal
  GI50: 8.49 µM
  TGI: > 25 µM
HL-60(TB) leukemia
  GI50: > 25 µM
  TGI: > 25 µM
OVCAR-3 ovarian
  GI50: 17.2 µM
  TGI: > 25 µM
MCF7 breast
  GI50: 1.58 µM
  TGI: > 25 µM
SF-268 CNS
  GI50: > 25 µM
  TGI: > 25 µM
HOP-62 NSCLC
  GI50: > 25 µM
  TGI: > 25 µM
PC-3 prostate
  GI50: > 25 µM
  TGI: > 25 µM

## Nc1c(C(=O)Nc2cccc(Cl)c2)sc2nc3c(cc12)C(=O)CCC3
HCT-15 colon
  GI50: 0.411 µM
  TGI: > 100 µM
OVCAR-8 ovarian
  GI50: > 41.3 µM
  TGI: > 100 µM
HS 578T breast
  GI50: 0.422 µM
  TGI: > 100 µM
UO-31 renal
  TGI: > 100 µM
HL-60(TB) leukemia
  TGI: > 100 µM
OVCAR-3 ovarian
  GI50: 0.305 µM
  TGI: > 100 µM
MCF7 breast
  GI50: 0.201 µM
  TGI: > 100 µM
SF-268 CNS
  GI50: > 45.4 µM
  TGI: > 100 µM
HOP-62 NSCLC
  GI50: 0.663 µM
  TGI: > 100 µM
PC-3 prostate
  GI50: 0.528 µM
  TGI: > 100 µM

## C[N+]1([O-])C2CCC1CC(OC(=O)C(CO)c1ccccc1)C2 (configuration not stated)
HCT-15 colon
  TGI: > 100 µM
OVCAR-8 ovarian
  TGI: > 100 µM
HS 578T breast
  TGI: > 100 µM
UO-31 renal
  TGI: > 100 µM
HL-60(TB) leukemia
  TGI: > 100 µM
OVCAR-3 ovarian
  TGI: > 100 µM
MCF7 breast
  TGI: > 100 µM
SF-268 CNS
  TGI: > 100 µM
HOP-62 NSCLC
  TGI: > 100 µM
PC-3 prostate
  TGI: > 100 µM

## CN(C)CCNC(=O)c1cc2c3cc(Cl)ccc3[nH]c2c2ncccc12
HCT-15 colon
  GI50: 1.84 µM
  TGI: 4.9 µM
OVCAR-8 ovarian
  GI50: 2.57 µM
  TGI: 12.7 µM
HS 578T breast
  GI50: 1.87 µM
  TGI: 9.66 µM
UO-31 renal
  GI50: 1.1 µM
  TGI: 2.49 µM
HL-60(TB) leukemia
  GI50: 1.97 µM
  TGI: 4.02 µM
OVCAR-3 ovarian
  GI50: 11.1 µM
  TGI: 29.6 µM
MCF7 breast
  GI50: 1.8 µM
  TGI: 4.78 µM
SF-268 CNS
  GI50: 2.81 µM
  TGI: 11.8 µM
HOP-62 NSCLC
  GI50: 5.85 µM
  TGI: 19.1 µM
PC-3 prostate
  GI50: 3.62 µM
  TGI: 14.8 µM

## Cc1cc(I)cc(CNCCN(C)C)c1O
HCT-15 colon
  GI50: 43.8 µM
  TGI: > 100 µM
OVCAR-8 ovarian
  GI50: > 100 µM
  TGI: > 100 µM
HS 578T breast
  GI50: 49.5 µM
  TGI: > 100 µM
UO-31 renal
  GI50: 60.5 µM
  TGI: > 100 µM
HL-60(TB) leukemia
  GI50: 57.8 µM
  TGI: > 100 µM
OVCAR-3 ovarian
  GI50: > 86 µM
  TGI: > 100 µM
MCF7 breast
  GI50: > 100 µM
  TGI: > 100 µM
SF-268 CNS
  GI50: 65.9 µM
  TGI: > 100 µM
HOP-62 NSCLC
  GI50: > 100 µM
  TGI: > 100 µM
PC-3 prostate
  GI50: > 84 µM
  TGI: > 100 µM
